Results reported in patent US7538216B2, “Guanidino phenylalanin compounds used as urokinase inhibitors” (Wilex AG, priority 2002, dated 2009).
pKi: −log10 of the molar value. Counter-ions that a name gives are not always drawn.

Columns and labels:
Type in all cases: biochemical
thrombin = thrombin (Homo sapiens, UniProt P00734); test: In-vitro inhibition of serine proteases of the trypsin type: thrombin
Method: (§1) In order to determine the activity of the inhibitor, 200 μl of Tris buffer (0.05 mol/l, containing the inhibitor, 0.154 mol of NaCl/l, 5% ethanol, pH 8.0), 25 μl of substrate (Pefachrome UK or Bz-βAla-Gly-Arg-pNA in H2O; Pentapharm Ltd., Basle, Switzerland) and 50 μl of sc-urokinase (Ribosepharm GmbH, Haan, Germany) were incubated at 25° C. After 3 min, the reaction was terminated by adding 25 μl of acetic acid (50%) and the absorption was determined at 405 nm using a Microplate Reader (MR 5000, Dynatech, Denkendorf, Germany). The Ki values were determined in accordance with Dixon by means of linear regression using a computer program. The Ki values are the means of at least 3 determinations; the standard deviation was less than 25%.
(§2) The inhibitory effect for the enzymes employed was determined in accordance with the principle described in Example 3.

sc-urokinase = target: T1, sc-urokinase (Homo sapiens, UniProt P00749); test: In-vitro inhibition of urokinase (chromogenic substrate, Dixon); conditions: 25° C, pH 8.0; mean of at least 3 determinations
T1 construct: purchased Ribosepharm GmbH, Haan, Germany
Method: as §1

plasmin = target: T2, plasmin (Homo sapiens, UniProt P00747); test: In-vitro inhibition of serine proteases of the trypsin type: plasmin
T2 construct: uPA mediates the proteolytic cleavage of plasminogen to give plasmin
Method: as §1, §2

T2 sequence (P00747 581-810 limits assumed, species assumed): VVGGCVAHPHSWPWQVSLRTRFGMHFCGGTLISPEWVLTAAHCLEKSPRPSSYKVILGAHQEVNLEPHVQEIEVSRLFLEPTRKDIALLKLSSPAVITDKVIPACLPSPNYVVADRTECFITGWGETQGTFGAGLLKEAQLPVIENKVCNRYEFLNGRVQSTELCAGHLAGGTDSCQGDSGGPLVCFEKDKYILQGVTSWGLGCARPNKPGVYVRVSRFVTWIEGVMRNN
T2 sequence (P00747 97-580 partner limits assumed, species assumed): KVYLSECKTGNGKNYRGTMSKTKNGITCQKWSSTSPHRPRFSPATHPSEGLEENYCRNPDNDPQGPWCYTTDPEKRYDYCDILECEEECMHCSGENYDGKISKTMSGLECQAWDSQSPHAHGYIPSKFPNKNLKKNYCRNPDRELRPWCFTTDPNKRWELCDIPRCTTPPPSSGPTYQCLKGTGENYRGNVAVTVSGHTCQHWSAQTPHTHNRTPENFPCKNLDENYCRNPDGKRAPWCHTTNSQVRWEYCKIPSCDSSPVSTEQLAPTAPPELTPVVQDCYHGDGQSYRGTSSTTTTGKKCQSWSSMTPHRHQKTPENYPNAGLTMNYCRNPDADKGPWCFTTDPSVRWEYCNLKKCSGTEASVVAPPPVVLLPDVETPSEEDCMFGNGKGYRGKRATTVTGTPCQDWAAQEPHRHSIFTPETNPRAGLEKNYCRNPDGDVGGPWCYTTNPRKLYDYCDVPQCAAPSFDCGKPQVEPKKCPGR

CCOC(=O)N1CCN(C(=O)[C@H](Cc2cccc(NC(=N)N)c2)NS(=O)(=O)c2c(C(C)C)cc(C(C)C)cc2C(C)C)CC1 [Example 1, Nα-2,4,6-triisopropylphenylsulfonyl-3-guanidino-(L)-phenylalanine-4-ethoxycarbonylpiperazine hydrochloride]
pKi (thrombin): ≤ 4.92
pKi (sc-urokinase): 6.33
pKi (plasmin): 5.42
